The subject of test [1] is Barrett's stem cells (BE stem cells, Krt7+). The test can be described thus: High throughput chemical screening and dose response on GFP-labeled stem cells. Type of test: cell-based, human.
Test [2] has as its system esophageal squamous stem cells (ESO stem cells, Krt5+). The test is described as above. Type of test: cell-based, human. As to conditions: in the presence of 1 μM Ponatinib.
For test [3], the system named is Barrett's stem cells and Esophageal stem cells. Description: Co-culture of Barrett's stem cell lines and Esophageal stem cells. The format is cell-based, human. The following applies: in the presence of Ponatinib.
The test system of test [4] is Barrett's stem cells (GFP) and esophageal squamous stem cells (RFP). The test can be described thus: 3D air-liquid interface (ALI) co-culture of Barrett's and esophageal stem cells. The format is cell-based, human. As to conditions: in the presence of Ponatinib. The protocol: A 3D culture model was generated to mimic Barrett's Esophagus in vitro. The esophageal squamous stem cells and Barrett's stem cells were co-cultured in the transwell insert. Following the creation of air-liquid interface, it was observed that the BE islands located among well-differentiated squamous epithelium that well recapitulated the histology of human BE in the patient. Given the similarity of this artificial model and human pathology, the hits were tested in this system to further validate them. […] The esophageal squamous stem cells were labeled with red fluorescent protein (RFP) while Barrett's stem cells were labeled with green fluorescent protein (GFP). Without the treatment, it was observed that a mixture of GFP and RFP labeled cells in culture.

Test [5] concerns dysplasia and cancer stem cells. Description: Mice xenografted with dysplasia and cancer stem cells. Type of test: in vivo. The following applies: with Ponatinib. The source says: FIG. 5C. Schematic of in vivo validation of drug combinations in mice xenografted with dysplasia and cancer stem cells. Following the treatment, the xenografts were processed for histological analysis or clonogenic assays to detect the existence of stem cells.

The target in the next test is T1, JMJD2A (KDM4A) (Homo sapiens, UniProt O75164).
T1 sequence (O75164 1-1064): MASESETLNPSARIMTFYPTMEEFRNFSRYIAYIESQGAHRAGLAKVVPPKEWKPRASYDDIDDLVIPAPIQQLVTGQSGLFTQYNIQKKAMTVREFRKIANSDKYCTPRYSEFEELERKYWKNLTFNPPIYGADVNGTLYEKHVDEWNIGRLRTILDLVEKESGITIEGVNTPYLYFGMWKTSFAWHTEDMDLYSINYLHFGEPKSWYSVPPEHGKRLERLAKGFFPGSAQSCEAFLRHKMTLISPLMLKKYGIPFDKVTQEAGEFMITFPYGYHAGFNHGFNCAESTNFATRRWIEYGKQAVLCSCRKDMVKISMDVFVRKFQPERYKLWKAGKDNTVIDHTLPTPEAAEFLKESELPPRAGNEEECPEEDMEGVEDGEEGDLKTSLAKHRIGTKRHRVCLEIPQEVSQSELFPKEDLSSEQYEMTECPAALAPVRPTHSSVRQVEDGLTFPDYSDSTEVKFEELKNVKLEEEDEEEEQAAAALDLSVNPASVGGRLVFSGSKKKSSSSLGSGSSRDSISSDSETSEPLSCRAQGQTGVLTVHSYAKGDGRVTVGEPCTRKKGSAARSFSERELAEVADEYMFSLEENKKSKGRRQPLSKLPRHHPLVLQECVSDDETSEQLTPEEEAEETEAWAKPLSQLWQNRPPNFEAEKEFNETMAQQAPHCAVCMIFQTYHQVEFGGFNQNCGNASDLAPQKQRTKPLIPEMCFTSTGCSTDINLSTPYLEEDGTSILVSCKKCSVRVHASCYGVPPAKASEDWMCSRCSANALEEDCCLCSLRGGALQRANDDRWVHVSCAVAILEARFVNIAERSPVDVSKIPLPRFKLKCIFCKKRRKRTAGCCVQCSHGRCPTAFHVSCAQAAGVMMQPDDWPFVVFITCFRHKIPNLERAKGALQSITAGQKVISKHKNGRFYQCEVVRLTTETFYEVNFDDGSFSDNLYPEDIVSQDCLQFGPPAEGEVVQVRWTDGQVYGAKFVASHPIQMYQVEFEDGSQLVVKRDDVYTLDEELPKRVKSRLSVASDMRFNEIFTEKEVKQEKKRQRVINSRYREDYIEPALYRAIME
The following applies: demethylase activity in vitro; cited from earlier work.

For a further test, the target named is T2, JMJD2B (KDM4B) (Homo sapiens, UniProt O94953).
T2 sequence (O94953 1-1096): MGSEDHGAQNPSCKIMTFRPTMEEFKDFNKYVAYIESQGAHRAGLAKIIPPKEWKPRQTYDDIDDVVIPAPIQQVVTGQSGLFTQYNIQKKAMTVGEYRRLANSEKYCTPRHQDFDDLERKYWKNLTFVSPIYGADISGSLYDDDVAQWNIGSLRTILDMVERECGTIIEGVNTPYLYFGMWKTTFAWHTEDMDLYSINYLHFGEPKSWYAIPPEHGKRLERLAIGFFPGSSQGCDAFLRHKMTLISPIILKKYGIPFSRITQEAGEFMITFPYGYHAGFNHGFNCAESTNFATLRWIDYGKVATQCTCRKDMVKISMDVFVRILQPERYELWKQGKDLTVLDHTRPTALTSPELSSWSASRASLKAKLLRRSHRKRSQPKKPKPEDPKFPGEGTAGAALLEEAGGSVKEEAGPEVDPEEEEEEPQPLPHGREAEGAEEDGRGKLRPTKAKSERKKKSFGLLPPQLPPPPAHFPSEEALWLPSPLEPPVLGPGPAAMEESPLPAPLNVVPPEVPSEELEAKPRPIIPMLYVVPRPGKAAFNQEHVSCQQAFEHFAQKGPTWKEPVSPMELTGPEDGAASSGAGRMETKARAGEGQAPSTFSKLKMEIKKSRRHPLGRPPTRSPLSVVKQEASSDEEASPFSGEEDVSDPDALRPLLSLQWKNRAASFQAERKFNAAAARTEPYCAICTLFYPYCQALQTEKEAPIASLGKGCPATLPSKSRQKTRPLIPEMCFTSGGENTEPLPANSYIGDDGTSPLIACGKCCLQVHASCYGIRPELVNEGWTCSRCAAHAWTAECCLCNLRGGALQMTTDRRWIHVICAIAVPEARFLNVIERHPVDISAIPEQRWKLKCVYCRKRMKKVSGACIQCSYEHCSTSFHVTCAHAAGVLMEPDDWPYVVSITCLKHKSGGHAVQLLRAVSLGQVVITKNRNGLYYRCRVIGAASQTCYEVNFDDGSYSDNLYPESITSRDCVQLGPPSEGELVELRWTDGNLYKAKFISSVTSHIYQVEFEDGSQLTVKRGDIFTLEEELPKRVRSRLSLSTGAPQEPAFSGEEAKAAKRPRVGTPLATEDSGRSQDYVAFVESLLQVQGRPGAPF
As to conditions: demethylase activity in vitro; cited from earlier work.

The structures appear in SMILES notation. pIC50: −log10 of the molar value.

`Clc1ccc(N/N=C(\c2ccccc2)c2ccccn2)nc1` [JIB04]: the “differential of dose-response curves, BE stem cells versus normal esophageal stem cells” value in test [1] (in the background of a fixed concentration of Ponatinib) is on record as ~1,000 fold. Besides, the “lethality towards Barrett's stem cells” value in test [1] (screened in the background of 1 μM Ponatinib) was “displayed the lethality”. The “effect on Esophageal stem cells” value in test [2] is recorded as “without affecting”. Further, the “effect on Esophageal squamous stem cells in co-culture” value in test [3] was “promoting”. Besides, in test [3] (nine Barrett's stem cell lines), the “lethality to Barrett's stem cells in co-culture” value is given as “uniform lethality to all Barrett's stem cells”. Further, the “cross sections of the ALI structures” value in test [4] is on record as “intact esophageal squamous epithelium without any existence of Barrett's epithelium”. For the same compound, in test [4] (eight Barrett's stem cell lines), the “GFP labeled Barrett's stem cells in 3D ALI co-culture” value is “disappearance”. In test [5], the “Dysplastic structures (Krt7+/Ki67+) in xenografts” value is on record as “diminished”; the “eradication of precancerous, dysplastic and cancerous stem cells in mouse xenograft models” value is given as “eradicate”; the “stem cells cloned from treated dysplastic structures (rhodamine staining)” value was “not cloned”. The pIC50 at JMJD2A (KDM4A) is roughly 6.36. For the same compound, on JMJD2B (KDM4B), the negative logarithm of the IC50 (pIC50) is roughly 6.36.

As usually defined, the pIC50 is the IC50 on a negative log10 scale, so that one unit is a factor of ten.

Values taken from patent publication US20220202792A1, “METHODS AND COMPOSITIONS FOR TREATING CHRONIC INFLAMMATORY INJURY, METAPLASIA, DYSPLASIA AND CANCERS OF EPITHELIAL TISSUES” (University of Houston System, priority 2019, published 2022).
